Laboratory results from patent US11447466B2, “Substituted indole compounds useful as inhibitors of TLR7/8/9” (BRISTOL-MYERS SQUIBB COMPANY, priority 2017, dated 2022).

Experiments:
Format in all cases: cell-based
human TLR8 = biological target: T1, human TLR8 (Homo sapiens, UniProt Q9NR97); experiment: TLR8 inhibition reporter assay (HEK-Blue SEAP reporter, R848 stimulation); conditions: HEK-Blue cells overexpressing human TLR8, SEAP reporter, R848 15.9 μM, 22 hour incubation
T1 construct: host or cells: HEK-Blue cells
T1 sequence (Q9NR97 27-1041): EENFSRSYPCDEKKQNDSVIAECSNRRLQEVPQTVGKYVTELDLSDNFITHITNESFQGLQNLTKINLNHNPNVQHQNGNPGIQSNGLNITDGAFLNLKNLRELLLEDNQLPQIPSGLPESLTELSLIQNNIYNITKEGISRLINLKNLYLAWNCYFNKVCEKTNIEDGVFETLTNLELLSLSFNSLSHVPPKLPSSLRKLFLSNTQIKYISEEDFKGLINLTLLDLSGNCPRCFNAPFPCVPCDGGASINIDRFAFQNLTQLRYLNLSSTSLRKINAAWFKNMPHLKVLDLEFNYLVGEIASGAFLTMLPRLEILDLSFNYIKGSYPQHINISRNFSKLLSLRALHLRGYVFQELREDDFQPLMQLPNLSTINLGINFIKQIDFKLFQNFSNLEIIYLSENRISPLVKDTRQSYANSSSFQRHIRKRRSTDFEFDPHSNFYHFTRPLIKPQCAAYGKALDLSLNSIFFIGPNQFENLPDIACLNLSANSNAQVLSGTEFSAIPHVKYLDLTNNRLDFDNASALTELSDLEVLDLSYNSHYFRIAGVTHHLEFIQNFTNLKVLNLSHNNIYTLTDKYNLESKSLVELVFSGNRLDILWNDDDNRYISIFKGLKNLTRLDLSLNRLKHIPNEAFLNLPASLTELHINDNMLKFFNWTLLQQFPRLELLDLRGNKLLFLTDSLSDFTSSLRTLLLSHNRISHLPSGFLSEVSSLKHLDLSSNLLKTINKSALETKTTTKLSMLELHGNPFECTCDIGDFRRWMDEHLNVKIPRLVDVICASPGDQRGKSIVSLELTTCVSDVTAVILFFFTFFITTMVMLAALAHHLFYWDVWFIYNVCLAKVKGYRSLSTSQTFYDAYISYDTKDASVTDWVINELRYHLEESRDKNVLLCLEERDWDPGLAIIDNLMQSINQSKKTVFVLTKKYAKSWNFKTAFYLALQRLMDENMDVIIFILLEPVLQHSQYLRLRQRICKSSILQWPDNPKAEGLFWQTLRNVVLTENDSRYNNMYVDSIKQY
Procedure, shortened: (§1)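 Agonists used: gardiquimod 7.5 μM (TLR7), R848 15.9 μM (TLR8), ODN2006 5 nM (TLR9), added after 30 min room-temperature compound pre-treatment (0.05 nM–50 μM) of receptor-overexpressing HEK-Blue cells. SEAP reporter (NF-κB/AP-1 driven) read after 22 h at 37 °C; inhibition scaled between agonist+DMSO and reference-inhibitor wells.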

human TLR9 = biological target: T2, human TLR9 (Homo sapiens, UniProt Q9NR96); experiment: TLR9 inhibition reporter assay (HEK-Blue SEAP reporter, ODN2006 stimulation); conditions: HEK-Blue cells overexpressing human TLR9, SEAP reporter, ODN2006 5 nM, 22 hour incubation
T2 construct: host or cells: HEK-Blue cells
T2 sequence (Q9NR96 26-1032): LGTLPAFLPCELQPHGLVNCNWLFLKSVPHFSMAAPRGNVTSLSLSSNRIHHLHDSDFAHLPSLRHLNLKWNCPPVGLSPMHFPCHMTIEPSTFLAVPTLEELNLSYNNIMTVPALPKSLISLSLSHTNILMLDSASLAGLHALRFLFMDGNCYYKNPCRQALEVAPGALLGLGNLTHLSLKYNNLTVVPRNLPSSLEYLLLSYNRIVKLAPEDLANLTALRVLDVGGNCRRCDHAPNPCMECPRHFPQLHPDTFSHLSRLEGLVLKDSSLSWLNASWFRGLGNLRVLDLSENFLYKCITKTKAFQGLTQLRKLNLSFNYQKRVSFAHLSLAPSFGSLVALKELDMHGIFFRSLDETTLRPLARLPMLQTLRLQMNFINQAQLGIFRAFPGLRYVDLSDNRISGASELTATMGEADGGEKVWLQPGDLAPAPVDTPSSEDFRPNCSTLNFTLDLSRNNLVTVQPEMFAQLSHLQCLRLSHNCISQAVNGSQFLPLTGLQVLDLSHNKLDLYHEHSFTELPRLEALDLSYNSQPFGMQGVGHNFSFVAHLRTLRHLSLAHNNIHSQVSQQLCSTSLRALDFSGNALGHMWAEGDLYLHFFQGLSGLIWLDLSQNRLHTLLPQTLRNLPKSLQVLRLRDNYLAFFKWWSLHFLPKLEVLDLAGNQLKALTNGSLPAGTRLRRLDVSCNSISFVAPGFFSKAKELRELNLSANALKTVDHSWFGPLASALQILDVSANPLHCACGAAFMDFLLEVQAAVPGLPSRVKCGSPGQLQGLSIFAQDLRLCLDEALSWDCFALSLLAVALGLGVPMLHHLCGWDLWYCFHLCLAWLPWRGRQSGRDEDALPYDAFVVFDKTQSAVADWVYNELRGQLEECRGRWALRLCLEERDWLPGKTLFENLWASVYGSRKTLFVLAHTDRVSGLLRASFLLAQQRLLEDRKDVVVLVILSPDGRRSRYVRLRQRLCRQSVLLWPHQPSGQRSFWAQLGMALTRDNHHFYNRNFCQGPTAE
Procedure, shortened: as §1

human TLR7 = biological target: T3, human TLR7 (Homo sapiens, UniProt Q9NYK1); experiment: TLR7 inhibition reporter assay (HEK-Blue SEAP reporter, gardiquimod stimulation); conditions: HEK-Blue cells overexpressing human TLR7, SEAP reporter, gardiquimod 7.5 μM, 22 hour incubation
T3 construct: host or cells: HEK-Blue cells
T3 sequence (Q9NYK1 27-1049): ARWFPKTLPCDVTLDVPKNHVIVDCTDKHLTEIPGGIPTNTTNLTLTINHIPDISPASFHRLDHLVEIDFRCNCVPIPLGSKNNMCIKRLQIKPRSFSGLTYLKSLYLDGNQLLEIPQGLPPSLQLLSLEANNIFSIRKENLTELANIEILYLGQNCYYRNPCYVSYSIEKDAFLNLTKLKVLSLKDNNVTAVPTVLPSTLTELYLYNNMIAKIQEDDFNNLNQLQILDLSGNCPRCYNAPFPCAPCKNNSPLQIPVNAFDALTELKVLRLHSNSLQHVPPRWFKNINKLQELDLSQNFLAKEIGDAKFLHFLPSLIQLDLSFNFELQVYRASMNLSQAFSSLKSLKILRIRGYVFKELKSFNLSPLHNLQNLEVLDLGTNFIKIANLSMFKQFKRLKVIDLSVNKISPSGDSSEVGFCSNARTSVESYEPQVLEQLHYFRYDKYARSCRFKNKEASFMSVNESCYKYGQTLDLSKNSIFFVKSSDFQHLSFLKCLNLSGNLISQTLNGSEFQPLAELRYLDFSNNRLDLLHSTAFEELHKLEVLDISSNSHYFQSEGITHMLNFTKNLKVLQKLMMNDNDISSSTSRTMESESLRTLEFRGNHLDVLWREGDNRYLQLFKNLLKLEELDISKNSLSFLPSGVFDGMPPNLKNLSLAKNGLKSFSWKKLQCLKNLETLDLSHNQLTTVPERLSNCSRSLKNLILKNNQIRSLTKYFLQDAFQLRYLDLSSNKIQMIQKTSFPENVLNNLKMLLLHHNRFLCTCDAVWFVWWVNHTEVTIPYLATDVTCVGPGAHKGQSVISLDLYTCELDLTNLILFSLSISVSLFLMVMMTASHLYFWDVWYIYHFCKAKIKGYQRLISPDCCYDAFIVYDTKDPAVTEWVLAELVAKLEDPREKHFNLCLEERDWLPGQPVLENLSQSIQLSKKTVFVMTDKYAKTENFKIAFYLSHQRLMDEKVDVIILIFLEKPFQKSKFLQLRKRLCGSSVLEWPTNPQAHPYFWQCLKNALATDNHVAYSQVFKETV
Procedure, shortened: as §1

SMILES	IC50 (human TLR8) [nM]	IC50 (human TLR9) [nM]	IC50 (human TLR7) [nM]
Cc1c(-c2[nH]c3ccc(C4CCN(CC5CCOC5)CC4)cc3c2C(C)C)cn(C)c(=O)c1Cl (stereo not drawn) [Example 252, 3-chloro-5-(3-isopropyl-5-(1-((tetrahydrofuran-3-yl)methyl)piperidin-4-yl)-1H-indol-2-yl)-1,4-dimethylpyridin-2(1H)-one]	2.7	2660	4.2
CNC(=O)CN1CCC(c2ccc3[nH]c(-c4cc(C)c(=O)n(CC(C)C)c4)c(C(C)C)c3c2)CC1 [Example 161, 2-(4-(2-(1-isobutyl-5-methyl-6-oxo-1,6-dihydropyridin-3-yl)-3-isopropyl-1H-indol-5-yl)piperidin-1-yl)-N-methylacetamide]	239	8730	50.5
Cc1cc(-c2[nH]c3ccc(C4CCN(C)CC4)cc3c2C(C)C)nn(C)c1=O [Example 191, 6-(3-isopropyl-5-(1-methylpiperidin-4-yl)-1H-indol-2-yl)-2,4-dimethylpyridazin-3(2H)-one]	21.5	8840	6.9
Cc1cc(-c2[nH]c3ccc(C4CCN(CCCC(F)(F)F)CC4)cc3c2C(C)C)cn(C)c1=O [Example 79, 5-(3-isopropyl-5-(1-(4,4,4-trifluorobutyl)piperidin-4-yl)-1H-indol-2-yl)-1,3-dimethylpyridin-2(1H)-one]	10.8	3790	11.1
Cc1c(-c2[nH]c3ccc(C4CCNCC4)cc3c2C(C)C)ccc(=O)n1C [Example 6, 5-(3-isopropyl-5-(piperidin-4-yl)-1H-indol-2-yl)-1,6-dimethylpyridin-2(1H)-one]	13.3	580	12.8
COCCN1CCC(c2ccc3[nH]c(-c4cc(-c5cnn(C)c5)c(=O)n(C)c4)c(C(C)C)c3c2)CC1 [Example 350, 5-(3-isopropyl-5-(1-(2-methoxyethyl)piperidin-4-yl)-1H-indol-2-yl)-1-methyl-3-(1-methyl-1H-pyrazol-4-yl)pyridin-2(1H)-one]	1.4	2140	14.4
Cc1c(-c2[nH]c3ccc(C4CCN(CCC(C)C)CC4)cc3c2C(C)C)cn(C)c(=O)c1Cl [Example 91, 3-chloro-5-(5-(1-isopentylpiperidin-4-yl)-3-isopropyl-1H-indol-2-yl)-1,4-dimethylpyridin-2(1H)-one]	5	4390	2.6
CCn1cc(-c2[nH]c3ccc(C4CCN(C5COC5)CC4)cc3c2C(C)C)c(C)c(C)c1=O [Example 209, 1-ethyl-5-(3-isopropyl-5-(1-(oxetan-3-yl)piperidin-4-yl)-1H-indol-2-yl)-3,4-dimethylpyridin-2(1H)-one]	18	17500	34.3
Cc1cc(-c2[nH]c3ccc(C4CCN(C(=O)CN(C)C)CC4)cc3c2C(C)C)c(C)n(C)c1=O [Example 279, 5-(5-(1-(dimethylglycyl)piperidin-4-yl)-3-isopropyl-1H-indol-2-yl)-1,3,6-trimethylpyridin-2(1H)-one]	5.9	7060	23.1
CCn1cc(-c2[nH]c3ccc(C4CCN(CC(=O)NC)CC4)cc3c2C(C)C)c(C)c(C)c1=O [Example 137, 2-(4-(2-(1-ethyl-4,5-dimethyl-6-oxo-1,6-dihydropyridin-3-yl)-3-isopropyl-1H-indol-5-yl)piperidin-1-yl)-N-methylacetamide]	12.3	11500	19.9
Cc1cc(-c2[nH]c3ccc(C4CCN(C)CC4)cc3c2C(C)C)cn(C)c1=O [Example 181, 5-(3-isopropyl-5-(1-methylpiperidin-4-yl)-1H-indol-2-yl)-1,3-dimethylpyridin-2(1H)-one]	8.5	13500	2
CC(C)c1c(-c2cc(C(F)(F)F)c(=O)n(C)c2)[nH]c2ccc(C3CCNCC3)cc12 [Example 41, 5-(3-isopropyl-5-(piperidin-4-yl)-1H-indol-2-yl)-1-methyl-3-(trifluoromethyl)pyridin-2(1H)-one]	158	1120	18
CC(C)c1c(-c2ccc(=O)n(C)c2)[nH]c2ccc(C3CCN(C4COC4)CC3)cc12 [Example 175, 5-(3-isopropyl-5-(1-(oxetan-3-yl)piperidin-4-yl)-1H-indol-2-yl)-1-methylpyridin-2(1H)-one]	87.5	15500	275
Cc1cc(-c2[nH]c3ccc(C4CCN(C(=O)CN(C)C)CC4)cc3c2C(C)C)cn(Cc2ccccc2)c1=O [Example 284, 1-benzyl-5-(5-(1-(dimethylglycyl)piperidin-4-yl)-3-isopropyl-1H-indol-2-yl)-3-methylpyridin-2(1H)-one]	21.8	1660	6.5
